Results on 39 compounds are retold here after ChEMBL document CHEMBL1156829 (Proc Natl Acad Sci U S A, 2008).

The test system of series [1] is Plasmodium falciparum. Description: NOVARTIS: Inhibition of Plasmodium falciparum 3D7 (drug-susceptible) proliferation in erythrocyte-based infection assay. The format is functional, organism-based. Particulars: Plasmodium falciparum, 3D7.
In series [2] the test system is Plasmodium falciparum. Description: NOVARTIS: Inhibition of Plasmodium falciparum W2 (drug-resistant) proliferation in erythrocyte-based infection assay. The format is functional, organism-based. Particulars: Plasmodium falciparum, W2; read-out: EC50.
Series [3] is described as follows: NOVARTIS: Cytotoxicity against human hepatocellular carcinoma cell line (Huh7). The format is toxicity, cell-based, Huh-7. Particulars: Huh7 cells (hepatocellular carcinoma cell line).

SMILES strings stand for the structures.

As for `CCCN1/C(=C/c2sc3ccccc3[n+]2CC)C=Cc2ccccc21`, the EC50 (usually the concentration that produces a half-maximal response) in series [1] turned out to be 820 nM; in series [2] it was 1340 nM. In addition, in series [3], the half-maximal cytotoxic concentration (CC50) (in general, the concentration giving 50% cytotoxicity) was more than 10000 nM.
In the same order, the values of `COc1ccccc1N1CCN(c2ccc(NC(=O)/C=C/c3ccc([N+](=O)[O-])cc3)cc2C(=O)NCCCN(C)C)CC1` are 290 nM, 121 nM and 921 nM.
In the same order, the values of `CCN(Cc1ccccc1)c1ncnc2ccc(Br)cc12` are 7440 nM, more than 12500 nM and 95300 nM.
For `CN1CCN(c2nc(NN=Cc3ccc(O)cc3)nc(Nc3ccc([N+](=O)[O-])cc3)n2)CC1`, in that order: more than 1250 nM, 1340 nM and more than 10000 nM.
On to `COC(=O)c1c(S(=O)(=O)NCCN(C)C)sc2c1CCN(CC(C)c1ccccc1)C2` (configuration not stated), for which the EC50 in series [1] is 1610 nM; in series [2] it was more than 1320 nM. In series [3], this compound had a CC50 of more than 10000 nM.
In the same order, the values of `CCCn1c(SCC(=O)Nc2ccccc2Cl)nc2c1c(=O)n(C)c(=O)n2C` are more than 1250 nM, 1320 nM and more than 10000 nM.
For `CC[n+]1c(C=Cc2ccc(C)cc2)ccc2ccccc21`, in that order: 2990 nM, 2700 nM and 20900 nM.
For `COc1ccc(NC(=O)CCCCCn2c(SCC(=O)NCC3CCCO3)nc3ccsc3c2=O)cc1` (configuration not stated), in that order: more than 725 nM, more than 1320 nM and more than 10000 nM.
On to `Cc1ccc(OCCCCN2CCOCC2)c([N+](=O)[O-])c1`, for which the EC50 in series [1] was more than 564 nM; in series [2] it was more than 1290 nM. This compound also returned a CC50 in series [3] of more than 10000 nM.
In the same order, the values of `COc1ccc2nc(C)cc(Nc3ccc(Oc4ccc(Br)c5ccccc45)c(Cl)c3)c2c1` are 1110 nM, 2340 nM and 18300 nM.
For the compound `O=[N+]([O-])c1cccc(Cl)c1N1CCN(S(=O)(=O)Cc2ccccc2)CC1`, the EC50 in series [1] was more than 1160 nM; in series [2], 1300 nM. This compound came in with a CC50 in series [3] of more than 10000 nM.
For `CCOC(=O)c1cc(-c2ccc(Cl)cc2Cl)[nH]c1N1CCN(c2ccc(OC)cc2)CC1`, in that order: 1370 nM, more than 1730 nM and more than 13400 nM.
In the same order, the values of `c1cncc(-c2nc3cc(-c4ccc5[nH]c(-c6cccnc6)nc5c4)ccc3[nH]2)c1` are 1410 nM, 1290 nM and more than 10000 nM.
Turning to `CC(C)CNc1nc(NCCCN(C)C)ncc1C(=O)NCc1ccccc1`, the concentration for a half-maximal effect (EC50) in series [1] is 316 nM; in series [2], more than 1290 nM. Further, the CC50 in series [3] is more than 10000 nM.
In the same order, the values of `Cc1ccc(C2=NC(C(F)(F)F)(C(F)(F)F)N=C3C=CC(Cl)=CN32)cc1` are more than 1210 nM, more than 1300 nM and more than 10000 nM.
In the same order, the values of `COc1ccccc1CNc1ncc(C(=O)NCc2ccccc2)c(NCCc2ccccc2)n1` are 1280 nM, more than 1300 nM and more than 10000 nM.
In the same order, the values of `CCCN1CCC(NC2CCCc3c2[nH]c2ccc([N+](=O)[O-])cc32)CC1` (configuration not stated) are 1160 nM, 3630 nM and 28000 nM.
Turning to `O=c1c2sccc2nc(SCc2cc(=O)n3ccccc3n2)n1Cc1ccccc1`, the EC50 in series [1] was more than 1250 nM; in series [2] it was 1280 nM. The compound further yielded a CC50 in series [3] of more than 10000 nM.
For `CCC(=O)N1CCN(C(=O)c2ccc(C)cc2)C1`, in that order: more than 1500 nM, 1280 nM and more than 10000 nM.
With `O=C(O[Si](c1ccccc1)(c1ccccc1)c1ccccc1)c1ccccc1`, the EC50 in series [1] was more than 1250 nM; in series [2] it was 1320 nM. This compound displayed a cytotoxic concentration (CC50) in series [3] of more than 10000 nM.
Take `Cc1ccc(Nc2nc(NN=Cc3ccc(-c4ccc(Cl)c([N+](=O)[O-])c4)o3)nc(N3CCOCC3)n2)c(Br)c1`: the EC50 is more than 1060 nM in series [1] and 1320 nM in series [2]. Moreover, the CC50 in series [3] was more than 10000 nM.
Turning to `CC(=O)N1CCc2cc(Br)cc(S(=O)(=O)N3CCCC(C)C3)c21` (configuration not stated), the EC50 in series [1] was more than 1730 nM; in series [2], 1320 nM. The same compound had a CC50 in series [3] of more than 10000 nM.
On to `COC(=O)C1N(C(=O)OC)c2ccc([N+](=O)[O-])cc2S1(=O)=O` (configuration not stated), for which the EC50 in series [1] is 362 nM; in series [2], more than 1280 nM. The CC50 in series [3] is more than 10000 nM.
For `CCOC(=O)c1cnc2cc(Cl)c(OC)cc2c1NCCCN1CCOCC1`, in that order: 1370 nM, 1340 nM and more than 10000 nM.
In the same order, the values of `CCc1ccc2c(c1)C(c1ccncc1)=NNC(c1ccncc1)=N2` are 887 nM, more than 1300 nM and more than 10000 nM.
In the same order, the values of `COc1cccc(C(=O)N(CCCC(C)Nc2cc(OC)cc3cccnc23)Cc2ccc(OC)c(OC)c2)c1` (configuration not stated) are 1480 nM, 513 nM and more than 4010 nM.
Consider `COc1ccc2c(c1)c1c3n2CCN(Cc2ccccc2)C3=[N+](C)CC1`, for which the EC50 in series [1] stood at 442 nM; in series [2], 1340 nM. In series [3], this compound came in with a half-maximal cytotoxic concentration (CC50) of more than 10000 nM.
Turning to `O=C(NCc1ccccc1)c1cnc(NCCCn2ccnc2)nc1NC1CCCC1`, the results for the EC50 in series [1] and in series [2] were 624 nM and 1320 nM, respectively. Moreover, the CC50 in series [3] was more than 10000 nM.
Take `O=C(Nc1cccc(-c2nc3ccccc3[nH]2)c1)c1ccccc1[N+](=O)[O-]`: the EC50 in series [1] was more than 1720 nM; in series [2], more than 772 nM. The same compound returned a CC50 in series [3] of more than 6000 nM.
In the same order, the values of `O=C(NCc1ccco1)c1cccc(Cl)c1Cl` are more than 1250 nM, 1340 nM and more than 10000 nM.
In the same order, the values of `CCC(c1nc2ccccc2c(=O)n1-c1cccc(C)c1)N(CCc1ccccc1)C(=O)Nc1c(C(C)C)cccc1C(C)C` (configuration not stated) are 1070 nM, 1100 nM and more than 8510 nM.
In the same order, the values of `CC(C)N(CC(=O)Nc1cc(C(C)(C)C)nn1-c1ccc(Cl)c(Cl)c1)C(=O)c1ccc(C(F)(F)F)cc1` are 845 nM, 1330 nM and more than 10000 nM.
As to `CCCCCc1c(C)c(C#N)c2nc3ccccc3n2c1NCCN(CC)CC`, the figures for the EC50 in series [1] and in series [2] were more than 1250 nM and 1320 nM, respectively. For the same compound, in series [3], the CC50 was more than 10000 nM.
In the case of `Oc1cccc(-c2cncc(-c3cccnc3)n2)c1`, the EC50 in series [1] is 1300 nM; in series [2] it was 1290 nM. Also, the CC50 in series [3] was more than 10000 nM.
On to `Oc1ccc(-c2nc3ccccc3s2)cc1CN1CCCCC1`, for which the figures for the EC50 in series [1] and in series [2] were 1140 nM and 786 nM, respectively. In series [3], this compound displayed a CC50 of more than 6130 nM.
Take `Cc1nc(N2CCCCC2)c2c(C)c(C(=O)N3CCN(c4ccccc4F)CC3)sc2n1`: the EC50 in series [1] was more than 1540 nM; in series [2], 1300 nM. Besides, in series [3], the CC50 was more than 10000 nM.
Take `Oc1ccccc1-c1nc(-c2ccccc2)nc(-c2ccc(Br)cc2)n1`: the EC50 in series [1] is more than 1160 nM; in series [2] it was more than 1280 nM. The CC50 in series [3] is more than 10000 nM.
For `COc1ccc(C2CC(c3ccccc3Cl)n3ncnc3N2C(=O)C2CC2)cc1` (configuration not stated), in that order: 1320 nM, more than 1280 nM and more than 10000 nM.
With `CCCN1CCC(N2C[C@@H](NC3CCCCCCC3)C[C@H]2C(=O)NCCc2ccc3c(c2)OCO3)CC1`, the figures for the EC50 in series [1] and in series [2] were more than 1360 nM and more than 1300 nM, respectively. Moreover, the CC50 in series [3] is more than 10000 nM.
